# Read-outs that look alike come from different tables or passages of the source. Positions of bridges follow the written chain, without caps; N, C: chain ends. Residues, ends and D or L forms follow the SMILES beside them.
# System: primary ovarian cancer cells
# Details: High dose 5×10^-3 g/L, 48 h
# Method: We utilized cDNA microarrays to observe the effect of ACFP on gene expression in primary ovarian cancer cells. Cells were treated with 0 (the vehicle group, as control), 5 × 10^6 g/L and 5 × 10^3 g/L ACFP, respectively, and cultured for 48 h at 37 °C in 5 % CO2. Cells were later digested and collected for total RNA extraction using Trizol. The RNA concentrations and purities were detected with a spectrophotometer. The experiments were performed in duplicate on a single total RNA preparation from the cells. Signal values were presented as the mean value of two replicate experiments. RNA samples were used to generate human whole genome expression profiling microarray (Yeli Bioscience Co., Ltd.; Shanghai, China). RNA was subsequently converted into digoxigenin-labeled complementary RNA and hybridized to a human genome microarray system (Human OneArray Microarray, from Phalanx Biotech Group, Taiwan). The chips were scanned by a GeeDom® LuxScan 10 K microarray scanner. LuxScan3.0 software was used to extract probe fluorescence signals and analyze images. Finally, the original data were processed by normalizing.
smiles,measurement,setting,value
CC[C@H](C)[C@@H]1NC(=O)[C@H](CO)NC(=O)[C@@H]2CCCN2C(=O)[C@H](C)NC(=O)CNC(=O)[C@H](CC(C)C)NC(=O)[C@H](CCCCN)NC(=O)[C@H](CCCCN)NC(=O)[C@H](CCSC)NC(=O)[C@H](CCCNC(=N)N)NC(=O)[C@H](Cc2c[nH]c3ccccc23)NC(=O)[C@H](CCC(N)=O)NC(=O)[C@H](Cc2c[nH]c3ccccc23)NC(=O)[C@H](CCCNC(=N)N)NC(=O)[C@H](CCCNC(=N)N)NC(=O)[C@@H](NC(=O)[C@H](CCCCN)NC(=O)[C@@H](N)Cc2ccccc2)CSSC[C@@H](C(=O)N[C@H](C(=O)N[C@@H](CCCNC(=N)N)C(=O)N[C@@H](CCCNC(=N)N)C(=O)N[C@@H](C)C(=O)N[C@@H](Cc2ccccc2)C(=O)NCC(=O)NCC(=O)NCC(=O)NCC(=O)N[C@@H](CO)C(=O)N2CCC[C@H]2C(=O)NCC(=O)N2CCC[C@H]2C(=O)N[C@H](C(=O)N2CCC[C@H]2C(=O)N[C@@H](CC(N)=O)C(=O)O)[C@@H](C)CC)C(C)C)NC(=O)[C@H]([C@@H](C)O)NC1=O [ACFP] (H-FKCRRWQWRMKKLGAPSITCVRRAFGGGGSPGPIPN-OH; disulfide 3-20; N-terminus and C-terminus assumed),GTF2IP1 Ratio (ACFP/control),NM-002970,0.24
same,IGFBP5 Ratio (ACFP/control),NM-003488,0.23
same,MYLK Ratio (ACFP/control),NM-004638,0.23
same,NKX3-1 Ratio (ACFP/control),NM-004824,3.11
same,PLA2G5 Ratio (ACFP/control),NM-005322,0.46
same,POLH Ratio (ACFP/control),NM-005429,0.12
same,PSMA1 Ratio (ACFP/control),NM-005682,0.49
same,STAT5B Ratio (ACFP/control),NM-006777,2.03
same,STAT6 Ratio (ACFP/control),NM-006778,10.8
same,UPP1 Ratio (ACFP/control),NM-007378,0.42
same,TNFSF18 Ratio (ACFP/control),NM-008995,0.41
same,MAP4K4 Ratio (ACFP/control),NM-009448,0.41
same,BTF/BCLAF1 Ratio (ACFP/control),NM-009774,2.79
same,TMEFF1 Ratio (ACFP/control),NM-016522,7.91
same,RAB18 Ratio (ACFP/control),NM-022931,0.25
same,TCF/LEF1 Ratio (ACFP/control),NM-051176,0.35
same,PINX1 Ratio (ACFP/control),NM-054984,0.47
same,RINT-1 Ratio (ACFP/control),NM-060561,0.17
same,C17orf37 Ratio (ACFP/control),NM-084299,0.38
same,ZNF512 Ratio (ACFP/control),NM-084450,0.47
same,AKT1 Ratio (ACFP/control),NM_000207,0.27
same,ARHE Ratio (ACFP/control),NM_000390,3.39
same,BAG1 Ratio (ACFP/control),NM_000573,0.33
same,BAX Ratio (ACFP/control),NM_000581,6.35
same,BCL-xl Ratio (ACFP/control),NM_000598,0.19
same,C1QG Ratio (ACFP/control),NM_000714,2.68
same,CASP3 Ratio (ACFP/control),NM_000836,5.34
same,CCNB1 Ratio (ACFP/control),"NM_000891, cyclinB1",0.21
same,TNFRSF8 Ratio (ACFP/control),"NM_000943, first entry",3.22
same,TNFRSF8 Ratio (ACFP/control),"NM_000943, second entry",3.22
same,CDC25C Ratio (ACFP/control),NM_000995,0.32
same,CDKN1A Ratio (ACFP/control),NM_001026,6.58
same,CDKN1A/p21 Ratio (ACFP/control),"NM_001026, second entry",3.58
same,CKS2 Ratio (ACFP/control),NM_001164,8.95
same,DVL1 Ratio (ACFP/control),NM_001855,2.46
same,GRK4 Ratio (ACFP/control),NM_002868,0.37
same,GRK5 Ratio (ACFP/control),NM_002869,0.47
same,GRK6 Ratio (ACFP/control),NM_002870,0.26
same,GSTM4 Ratio (ACFP/control),NM_002948,2.72
same,GSTM5 Ratio (ACFP/control),NM_002949,4.84
same,IRF7 Ratio (ACFP/control),NM_003665,4.50
same,ITGA5 Ratio (ACFP/control),NM_003678,0.43
same,PKIA Ratio (ACFP/control),NM_005569,2.74
same,MAPK3/ERK1 Ratio (ACFP/control),NM_005595,0.35
same,MAPK8/JNK1 Ratio (ACFP/control),NM_005599,2.74
same,MAPK13/p38 delta Ratio (ACFP/control),NM_005603,3.04
same,PSMB8 Ratio (ACFP/control),NM_005696,3.24
same,TNFRSF1A Ratio (ACFP/control),"NM_007132, first entry",2.15
same,TNFRSF1A Ratio (ACFP/control),"NM_007132, second entry",2.08
same,ZNF12 Ratio (ACFP/control),NM_007559,3.66
same,BAT5 Ratio (ACFP/control),NM_007920,7.48
same,PABPN1 Ratio (ACFP/control),NM_008106,9.8
same,TNFRSF10B Ratio (ACFP/control),NM_008795,4.85
same,STK17B Ratio (ACFP/control),NM_009262,2.97
same,TRAF4 Ratio (ACFP/control),NM_009618,3.62
same,USP34 Ratio (ACFP/control),NM_009736,4.52
same,GOLGA5 Ratio (ACFP/control),NM_009950,2.95
same,SUI1 Ratio (ACFP/control),NM_010209,9.85
same,SPINT2 Ratio (ACFP/control),NM_010653,10.25
same,PIK3R5 Ratio (ACFP/control),NM_023533,0.44
same,CARD10 Ratio (ACFP/control),NM_029775,4.32
same,FLJ39616 Ratio (ACFP/control),NM_051275,2.53
same,GNG12 Ratio (ACFP/control),NM_055970,8.30
same,BCORL1 Ratio (ACFP/control),NM_063035,0.25
same,CARD14 Ratio (ACFP/control),NM_079092,3.06
same,BCL2L14 Ratio (ACFP/control),NM_079370,2.57
same,FLJ13848 Ratio (ACFP/control),NM_079829,9.45
same,SNARK Ratio (ACFP/control),NM_081788,3.11
same,C1QTNF6 Ratio (ACFP/control),"NM_114904, first entry",6.26
same,C1QTNF6 Ratio (ACFP/control),"NM_114904, second entry",6.26
same,LOC441241 Ratio (ACFP/control),NM_441241,5.22
